Source: ChEMBL document CHEMBL1201862, “PubChem BioAssay data set” (2004)
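Dose response: 5 concentrations. Exposure: 48 h. Format: 96-well plates. Endpoint: linear interpolation; highest concentration if not reached. At the GI50, growth is halved.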 The source made the active and inactive calls. Rule as the data show it: active = GI50 up to about 1.1 µM and inactive = higher.

Tests used:
Assay in all cases: growth of human tumour cells (NCI), 48 h
HCC 2998 = system: HCC 2998
SNB-75 = system: SNB-75
MOLT-4 = system: MOLT-4
NCI-H23 = system: NCI-H23
MDA-MB-231 = system: MDA-MB-231
OVCAR-3 = system: OVCAR-3
HCT-116 = system: HCT-116
MCF7 = system: MCF7
SNB-19 = system: SNB-19
M14 = system: M14
NCI-H460 = system: NCI-H460
SR = system: SR
UACC-62 = system: UACC-62
786-0 = system: 786-0
HT-29 = system: HT-29
Malme-3M = system: Malme-3M
OVCAR-8 = system: OVCAR-8
SF-539 = system: SF-539
SW-620 = system: SW-620
ACHN = system: ACHN
DU-145 = system: DU-145
HL-60 = system: HL-60
A498 = system: A498
SK-MEL-5 = system: SK-MEL-5
T47D = system: T47D
Hs-578T = system: Hs-578T
HOP-92 = system: HOP-92
EKVX = system: EKVX
SK-MEL-28 = system: SK-MEL-28
PC-3 = system: PC-3
U-251 = system: U-251
OVCAR-4 = system: OVCAR-4
COLO 205 = system: COLO 205
NCI-H522 = system: NCI-H522
OVCAR-5 = system: OVCAR-5
CAKI-1 = system: CAKI-1
A549 = system: A549
HOP-62 = system: HOP-62
SN12C = system: SN12C
SK-MEL-2 = system: SK-MEL-2
UACC-257 = system: UACC-257
SF-295 = system: SF-295
RPMI-8226 = system: RPMI-8226
MDA-MB-435 = system: MDA-MB-435
NCI/ADR-RES = system: NCI/ADR-RES
BT-549 = system: BT-549
MDA-N = system: MDA-N
HCT-15 = system: HCT-15
TK-10 = system: TK-10
LOX IMVI = system: LOX IMVI
IGROV-1 = system: IGROV-1
UO-31 = system: UO-31
KM12 = system: KM12
SF-268 = system: SF-268
SK-OV-3 = system: SK-OV-3
K562 = system: K562
NCI-H226 = system: NCI-H226
RXF 393 = system: RXF 393
CCRF-CEM = system: CCRF-CEM

For CCOC(=O)C1C(c2ccc(OC)cc2)c2c(nn(-c3ccccc3)c2O)CC1(O)OCC (stereo not drawn), the GI50 (HCC 2998) was > 100 µM (inactive), the GI50 (SNB-75) was 82.4 µM (inactive) and the GI50 (MOLT-4) was 2.45 µM (inactive). For the same compound, the GI50 (NCI-H23) was > 100 µM (inactive), the GI50 (MDA-MB-231) was 39.9 µM (inactive) and the GI50 (OVCAR-3) was > 100 µM (inactive). For the same compound, the GI50 (HCT-116) was 23.7 µM (inactive), the GI50 (MCF7) was 30.1 µM (inactive) and the GI50 (SNB-19) was 10 µM (inactive). For the same compound, the GI50 (M14) was 19.7 µM (inactive), the GI50 (NCI-H460) was 6.75 µM (inactive) and the GI50 (SR) was 2.17 µM (inactive). The GI50 (UACC-62) was 7.67 µM (inactive), the GI50 (786-0) was 63.4 µM (inactive) and the GI50 (HT-29) was 27.4 µM (inactive). For the same compound, the GI50 (Malme-3M) was 75.5 µM (inactive), the GI50 (OVCAR-8) was > 100 µM (inactive) and the GI50 (SF-539) was > 100 µM (inactive). For the same compound, the GI50 (SW-620) was 27.5 µM (inactive), the GI50 (ACHN) was 25.4 µM (inactive) and the GI50 (DU-145) was 44.6 µM (inactive). For the same compound, the GI50 (HL-60) was 0.47 µM (active), the GI50 (A498) was > 100 µM (inactive) and the GI50 (SK-MEL-5) was 26.6 µM (inactive). The GI50 (T47D) was 12.8 µM (inactive), the GI50 (Hs-578T) was > 100 µM (inactive) and the GI50 (HOP-92) was > 100 µM (inactive). The GI50 (EKVX) was 98.9 µM (inactive), the GI50 (SK-MEL-28) was > 100 µM (inactive) and the GI50 (PC-3) was 9.31 µM (inactive). For the same compound, the GI50 (U-251) was > 100 µM (inactive), the GI50 (OVCAR-4) was > 100 µM (inactive) and the GI50 (COLO 205) was 36.5 µM (inactive). For the same compound, the GI50 (NCI-H522) was 50.4 µM (inactive), the GI50 (OVCAR-5) was > 100 µM (inactive) and the GI50 (CAKI-1) was > 100 µM (inactive). The GI50 (A549) was 24 µM (inactive), the GI50 (HOP-62) was > 100 µM (inactive) and the GI50 (SN12C) was > 100 µM (inactive). The GI50 (SK-MEL-2) was > 100 µM (inactive), the GI50 (UACC-257) was 44.6 µM (inactive) and the GI50 (SF-295) was 1.92 µM (inactive). The GI50 (RPMI-8226) was 2.58 µM (inactive), the GI50 (MDA-MB-435) was 4.02 µM (inactive) and the GI50 (NCI/ADR-RES) was > 100 µM (inactive). The GI50 (BT-549) was > 100 µM (inactive), the GI50 (MDA-N) was 8.63 µM (inactive) and the GI50 (HCT-15) was 77.4 µM. For the same compound, the GI50 (TK-10) was > 100 µM (inactive), the GI50 (LOX IMVI) was 0.597 µM (active) and the GI50 (IGROV-1) was > 100 µM (inactive). The GI50 (UO-31) was 5.46 µM (inactive), the GI50 (KM12) was 3.4 µM (inactive) and the GI50 (SF-268) was > 100 µM (inactive).

In the case of CCCCCCCCCCCCCCC(C(=O)[O-])[n+]1ccccc1 (stereo not drawn), the GI50 (HCC 2998) is reported as 97.3 µM (inactive), the GI50 (SNB-75) is reported as > 100 µM (inactive) and the GI50 (MOLT-4) is reported as > 100 µM (inactive). For the same compound, the GI50 (NCI-H23) was > 100 µM (inactive), the GI50 (MDA-MB-231) was > 100 µM (inactive) and the GI50 (OVCAR-3) was > 100 µM (inactive). The GI50 (HCT-116) was > 100 µM (inactive), the GI50 (SK-OV-3) was > 100 µM (inactive) and the GI50 (MCF7) was 16.1 µM (inactive). The GI50 (SNB-19) was > 100 µM (inactive), the GI50 (M14) was > 100 µM (inactive) and the GI50 (NCI-H460) was > 100 µM (inactive). The GI50 (SR) was > 100 µM (inactive), the GI50 (UACC-62) was 77.3 µM (inactive) and the GI50 (786-0) was > 100 µM (inactive). The GI50 (HT-29) was > 100 µM (inactive), the GI50 (OVCAR-8) was 98.6 µM (inactive) and the GI50 (K562) was > 100 µM (inactive). The GI50 (SF-539) was > 100 µM (inactive), the GI50 (SW-620) was > 100 µM (inactive) and the GI50 (ACHN) was > 100 µM (inactive). The GI50 (DU-145) was > 100 µM (inactive), the GI50 (HL-60) was 98.4 µM (inactive) and the GI50 (A498) was > 100 µM (inactive). For the same compound, the GI50 (SK-MEL-5) was > 100 µM (inactive), the GI50 (T47D) was > 100 µM (inactive) and the GI50 (Hs-578T) was > 100 µM (inactive). The GI50 (HOP-92) was > 100 µM (inactive), the GI50 (EKVX) was > 100 µM (inactive) and the GI50 (SK-MEL-28) was > 100 µM (inactive). The GI50 (PC-3) was 18.8 µM (inactive), the GI50 (U-251) was 28.6 µM (inactive) and the GI50 (OVCAR-4) was > 100 µM (inactive). For the same compound, the GI50 (COLO 205) was > 100 µM (inactive), the GI50 (NCI-H522) was > 100 µM (inactive) and the GI50 (OVCAR-5) was 84.1 µM (inactive). For the same compound, the GI50 (CAKI-1) was > 100 µM (inactive), the GI50 (A549) was > 100 µM (inactive) and the GI50 (HOP-62) was > 100 µM (inactive). For the same compound, the GI50 (SN12C) was 23.4 µM (inactive), the GI50 (SK-MEL-2) was > 100 µM (inactive) and the GI50 (UACC-257) was > 100 µM (inactive). The GI50 (SF-295) was > 100 µM (inactive), the GI50 (RPMI-8226) was > 100 µM (inactive) and the GI50 (MDA-MB-435) was > 100 µM (inactive). The GI50 (NCI/ADR-RES) was > 100 µM (inactive), the GI50 (BT-549) was > 100 µM (inactive) and the GI50 (MDA-N) was > 100 µM (inactive). For the same compound, the GI50 (HCT-15) was greater than 100 µM, the GI50 (TK-10) was 15.1 µM (inactive) and the GI50 (NCI-H226) was > 100 µM (inactive). For the same compound, the GI50 (RXF 393) was 20.4 µM (inactive), the GI50 (LOX IMVI) was > 100 µM (inactive) and the GI50 (CCRF-CEM) was > 100 µM (inactive). The GI50 (IGROV-1) was > 100 µM (inactive), the GI50 (UO-31) was > 100 µM (inactive) and the GI50 (KM12) was > 100 µM (inactive). For the same compound, the GI50 (SF-268) was > 100 µM (inactive).

With COC1(O)C(=O)c2ccccc2OC1(OC)c1ccccc1 (stereo not drawn) the GI50 (HCC 2998) was > 100 µM (inactive), the GI50 (SNB-75) was > 100 µM (inactive) and the GI50 (MOLT-4) was 75.2 µM (inactive). For the same compound, the GI50 (NCI-H23) was > 100 µM (inactive), the GI50 (MDA-MB-231) was > 100 µM (inactive) and the GI50 (OVCAR-3) was > 100 µM (inactive). The GI50 (HCT-116) was > 100 µM (inactive), the GI50 (MCF7) was 48.9 µM (inactive) and the GI50 (SNB-19) was > 100 µM (inactive). The GI50 (M14) was > 100 µM (inactive), the GI50 (NCI-H460) was 40.4 µM (inactive) and the GI50 (SR) was 50.4 µM (inactive). For the same compound, the GI50 (UACC-62) was > 100 µM (inactive), the GI50 (786-0) was > 100 µM (inactive) and the GI50 (HT-29) was > 100 µM (inactive). For the same compound, the GI50 (Malme-3M) was > 100 µM (inactive), the GI50 (OVCAR-8) was > 100 µM (inactive) and the GI50 (K562) was 42 µM (inactive). For the same compound, the GI50 (SF-539) was > 100 µM (inactive), the GI50 (SW-620) was > 100 µM (inactive) and the GI50 (ACHN) was > 100 µM (inactive). The GI50 (DU-145) was > 100 µM (inactive), the GI50 (HL-60) was 50.4 µM (inactive) and the GI50 (A498) was > 100 µM (inactive). The GI50 (SK-MEL-5) was > 100 µM (inactive), the GI50 (T47D) was > 100 µM (inactive) and the GI50 (Hs-578T) was > 100 µM (inactive). For the same compound, the GI50 (HOP-92) was > 100 µM (inactive), the GI50 (EKVX) was > 100 µM (inactive) and the GI50 (SK-MEL-28) was > 100 µM (inactive). The GI50 (PC-3) was > 100 µM (inactive), the GI50 (U-251) was > 100 µM (inactive) and the GI50 (OVCAR-4) was > 100 µM (inactive). The GI50 (COLO 205) was > 100 µM (inactive), the GI50 (NCI-H522) was > 100 µM (inactive) and the GI50 (OVCAR-5) was > 100 µM (inactive). For the same compound, the GI50 (CAKI-1) was > 100 µM (inactive), the GI50 (A549) was > 100 µM (inactive) and the GI50 (HOP-62) was > 100 µM (inactive). For the same compound, the GI50 (SN12C) was > 100 µM (inactive), the GI50 (SK-MEL-2) was > 100 µM (inactive) and the GI50 (UACC-257) was > 100 µM (inactive). For the same compound, the GI50 (SF-295) was > 100 µM (inactive), the GI50 (RPMI-8226) was > 100 µM (inactive) and the GI50 (MDA-MB-435) was > 100 µM (inactive). For the same compound, the GI50 (NCI/ADR-RES) was 77.8 µM (inactive), the GI50 (BT-549) was > 100 µM (inactive) and the GI50 (MDA-N) was > 100 µM (inactive). The GI50 (HCT-15) was 31.8 µM, the GI50 (TK-10) was > 100 µM (inactive) and the GI50 (NCI-H226) was > 100 µM (inactive). The GI50 (RXF 393) was > 100 µM (inactive), the GI50 (LOX IMVI) was 65.9 µM (inactive) and the GI50 (CCRF-CEM) was 46.8 µM (inactive). The GI50 (IGROV-1) was > 100 µM (inactive) and the GI50 (SF-268) was > 100 µM (inactive).
